Literature values as cited in patent US20220031840A1, “Method of Treatment” (HaemaLogix Pty Ltd, priority 2018, published 2022).

Tested on: CXCL10
Details: elotuzumab phase I study; cited from earlier work

Substance: elotuzumab: antibody named as additional anti-cancer agent; phase I study cited (Zonder et al. 2012)
- Drug-induced change in CXCL10 levels: drug-induced increases
